Experimental data as given in the METLIN SMRT retention time set (Domingo-Almenara et al. 2019).

Test: gradient 5% acetonitrile 3 min, to 50% in 2 min, to 85% in 15 min, held 3 min, 100 µL/min
Settings: column: Zorbax Extend-C18 2.1 x 50 mm; eluents: water / acetonitrile, 0.1% formic acid
How it was run: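 In both positive and negative ionization mode, a quadrupole time-of-flight mass spectrometer coupled to HPLC analyzed pure standards run in mixtures of ~100 molecules. The Zorbax Extend-C18 column (2.1 × 50 mm, 1.8 μm) was operated at 100 μL/min with water and acetonitrile, each containing 0.1% formic acid. The dead volume was 40 μL and the dwell volume 900 μL. Retention time came from adduct peaks that were computationally picked and individually inspected by hand.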

SMILES	RP-LC retention time [s]
NCCC1CCN(C(=O)Nc2cccc(F)c2)CC1	595
CCC(=O)N1CCc2sc(C(=O)N3CCN(c4ccccc4F)CC3)cc2C1	827
COc1ccc(C(=O)NCc2ccccc2OC(F)(F)F)nn1	840
Cc1c(Cl)cccc1NC(=O)N1CCN(C2=CC3=NCC(C)N3C=N2)CC1 (centres undefined)	632
O=S(=O)(Cc1ccccc1F)N1CCC(OCCOCc2ccccc2)CC1	1010
Cc1sc2ncnc(SCC(=O)Nc3nc(-c4ccccc4)ns3)c2c1C	1080
COc1cccc(S(=O)(=O)N2CCC(c3noc(-c4ccccc4C)n3)CC2)c1	1140
CC(C)C(=O)N1CCOc2ccc(N(C)C)cc2C1	575
Cc1ccc(NC(=O)C2CCCN(S(=O)(=O)c3c[nH]c(C(=O)N4CCCC4)c3)C2)nc1 (centres undefined)	824
COc1ccc(CNC(=O)CN2CCc3[nH]c4c(OC)ccc(Cl)c4c(=O)c3C2)cc1	610
CCc1ccc(-n2nc(N3CCCC(C(=O)NCc4cccc(F)c4)C3)ccc2=O)cc1 (centres undefined)	899
Cc1ccc(-c2nnc(CC(=O)NC3CCCCC3)o2)cc1	830
c1cc2c(cc1-c1noc(C3CCCCC3)n1)nnn2CCN1CCOCC1	711
CCc1ccc(CNC(=O)CN2CCc3ccccc3C2C(=O)N2CCCCC2)cc1 (centres undefined)	965
CCOC(=O)N1CCN(C(=O)Cn2cnc(-c3ccc(OC)cc3)cc2=O)CC1	652
CC1CCN(c2cncnc2-n2cc(NC(=O)Nc3cccc(F)c3)cn2)CC1	772
CCn1ccc2c(cc(C(=O)Nc3ccccc3Br)n2C)c1=O	758
COc1ccc2c(c1)C1(CCN(C(=O)Nc3ccccc3C)C1)C(=O)N2 (centres undefined)	707
COc1ccccc1-c1noc(C2CCCN2C(=O)Nc2ccc3c(c2)OCO3)n1 (centres undefined)	812
CS(=O)(=O)N(C1CCOCC1)C1CN(C(=O)Nc2ccccc2F)C1	670
CN(C)C(=O)c1ccc2oc(CN3CCN(C(=O)NC(C)(C)C)CC3)nc2c1	597
NC(=O)c1nnsc1-c1ccc(-c2snnc2C(N)=O)cc1	694
COc1ccc(C2Cn3nnc(-c4nc(-c5ccccc5Br)no4)c3CO2)cc1 (centres undefined)	1150

SMILES	RP-LC retention time [s]
COc1ccc(-n2nnc(-c3nc(-c4cc(OC)ccc4OC)cs3)c2N)cc1	1080
Cc1oc2c(c1C(=O)Nc1ccc(Br)cc1)C1=NCCN1C=N2	644
c1cncc(-c2n[nH]c(C3CCCN(Cc4ccsc4)C3)n2)c1 (centres undefined)	552
Cc1ccc(-c2nc(-c3ccc(S(=O)(=O)N4CCOCC4)cc3)no2)cc1F	1190
Cn1ncc2c(N3CCOCC3)nc(C(=O)NCc3ccc(F)cc3)nc21	708
CCOC(=O)CN1N=C(C(=O)N2CCC(C)CC2)S(=O)(=O)c2ccc(C)cc21	939
Cc1ccc(-n2nc(N3CCCN(S(=O)(=O)c4ccccc4F)CC3)ccc2=O)cc1C	914
CCCn1c(=O)c(C)nc2cc(-c3noc(-c4ccc(OC)cc4)n3)ccc21	1160
CCn1c(=O)c2cc(C(=O)NCc3ccccc3C(F)(F)F)nn2c2ccccc21	1000
Cc1oc(C2CCN(S(=O)(=O)c3ccc(F)cc3)CC2)nc1C(=O)N1CCOCC1	789
COc1ccc(Cl)cc1NC(=O)Cn1ccc2c(=O)n(C)c(=O)n(C)c21	722
O=C(c1ccccc1)N1CCN(C(=O)N(c2ccccc2)c2ccccc2)CC1	808
CCCCN1CCN(C(=O)c2c(C)sc3ccn(CC(C)C)c(=O)c23)CC1	632
CCC(NC(=O)C1CCN(c2cncnc2N2CCCCC2)CC1)c1cccs1 (centres undefined)	706
COc1ccc(-c2ccc(=O)n(Cc3nc(-c4ccc(Br)cc4)no3)n2)cc1	1040
CCNC(=O)c1cc(C)nc2c(C)cccc12	568
O=C(Cn1c(=O)c(CCC(=O)NC2CCCC2)nc2ccccc21)Nc1ccc(Cl)cc1F	885
CCC(=O)N1CCc2cc(-c3ccc(C(=O)N4CCC(C(N)=O)CC4)cc3)ccc21	667
CCc1nc2ccc(-c3noc(-c4ccc(NC(C)=O)cc4)n3)cc2n1CC	630
CCn1c(=O)n(CC)c2cc(S(=O)(=O)c3ccc(OC)cc3)c(NC(=O)C(C)C)cc21	836
CC1=C(C(=O)Nc2cc(Cl)ccc2C(=O)NC(C)c2ccccc2)SCCO1 (centres undefined)	1070
Cc1ccc(S(=O)(=O)N2CCC3(CC2)NCCN=C3NCc2ccccc2F)cc1C	750
O=C(Cn1nc2c3cc(-c4ccc(F)cc4)nn3ccn2c1=O)NCc1ccco1	796

SMILES	RP-LC retention time [s]
Fc1ccc(-c2noc(-c3ccc(N4CCCCC4)nc3)n2)cc1	1360
CCOCCCNC(=O)N1CCN(Cc2nc3cc(C(=O)N(C)C)ccc3n2CC)CC1	581
COc1ccccc1NC(=O)c1ccc(NS(=O)(=O)c2cc(C)ccc2C)cc1	926
COC(=O)c1c(NC(C)c2ccc(F)cc2)c2cccc(Cl)c2[nH]c1=O (centres undefined)	858
CCn1c(=O)sc2cc(S(=O)(=O)N3CCC(C(=O)NCC4CCCO4)CC3)ccc21 (centres undefined)	719
CCOc1ccc(-c2cc3c(=O)n(Cc4nc(-c5cccc(Br)c5)no4)ccn3n2)cc1	1200
CCc1nc(-c2csc(S(=O)(=O)N3CCCC(C(=O)Nc4cccc(OC)c4)C3)c2)no1 (centres undefined)	1000
O=C(NCc1ccc(Cl)cc1)c1ccc2c(c1)N(CC(=O)N1CCCC1)C(=O)CO2	768
CN1C(=O)c2cccnc2Sc2cc(NC(=O)CCc3ccccc3)ccc21	818
O=C(c1n[nH]c2c1CCCC2)N1CCC2(CC1)N=C(c1ccccc1)NO2	698
CCNc1cc(N2CCC(CCC(=O)NCc3ccc(F)cc3)CC2)ncn1	574
CCCn1cc(C(=O)Nc2cc(OC)cc(OC)c2)c(=O)c2ccc(C)nc21	1170
Cc1ccc(-c2cc(C(=O)O)c3c(-c4ccc(C)cc4)[nH]nc3n2)cc1	856
Cc1ccccc1-c1cc2c(=O)n(Cc3nc(-c4ccccc4)no3)ccn2n1	1050
CCC1Oc2ccc(S(=O)(=O)N3CCC(C(=O)Nc4ccc(Cl)cc4)CC3)cc2NC1=O (centres undefined)	950
CCN1CCn2cc(S(=O)(=O)NCc3ccccc3C(F)(F)F)cc2C1=O	760
CCOC(=O)c1nc(Nc2ccccc2F)c2ccccc2n1	812
COCCn1c(SCc2nc(-c3ccc(Cl)cc3)no2)nc2cc3c(cc2c1=O)OCO3	1180
c1ccc(-c2cn(CCC3CCCCN3)nn2)cc1 (centres undefined)	509
N#Cc1ccc(N2C=C(C(=O)N3CCCC3)S(=O)(=O)c3ccc(Cl)cc32)cc1	799
Cc1cccc(CC(=O)N2C[C@@H]3C[C@H]2C[C@@H]3NS(C)(=O)=O)c1	673
CC1CCN(S(=O)(=O)c2ccc(-c3nnc(C(=O)NCCN4CCCCCC4)o3)cc2)CC1	726
Cc1cccc(NC(=O)Cn2cc(S(=O)(=O)c3ccc(F)cc3)c3ccccc32)n1	832

SMILES	RP-LC retention time [s]
CC1CCN(S(=O)(=O)c2cccn(CC(=O)OC(C)(C)C)c2=O)CC1	965
CCc1ccc(-n2ncc3c(=O)n(Cc4nc(-c5ccccc5)no4)cnc32)cc1	1160
CCc1ccccc1NC(=O)Cn1c(=O)n(-c2ccc(C)cc2)c(=O)c2c1cc(C)n2C	892
Cc1cc(C)c(S(=O)(=O)NC2CCCN(c3ccc(=O)n(C)n3)C2)c(C)c1 (centres undefined)	844
Cc1ccc(CN2CCN(C3CCN(S(=O)(=O)c4cccc(C)c4)CC3)C(=O)C2=O)cc1	873
COc1ccc(Cn2nnc(C(=O)O)c2C)cc1F	645
Fc1ccc(-c2ccc(CNCC3CCNCC3)o2)cc1Cl	582
Cc1nc(-c2cn(C)c3ncccc23)sc1C(=O)Nc1ccc(F)cc1	1130
CCOC(=O)c1cn(CC(=O)N2CCOc3ccc(C)cc32)c2nc(C)ccc2c1=O	836
O=C(NCc1ccc(Cl)cc1)c1cn2c(n1)CCCC2	621
CC1CN(C(=O)CCC(=O)NCCCN2CCC(N3CCCCC3)CC2)c2ccccc2O1 (centres undefined)	573
Cc1ccc(Sc2nccnc2N2CCCC(C(=O)N3CCN(c4ccccc4C)CC3)C2)cc1 (centres undefined)	1330
CN(C)C(=O)c1n[nH]c2c1CN(C(=O)c1ccccc1C(F)(F)F)CC2	725
CCCN(CC1CCOC1)C(=O)C1CCCCC1 (centres undefined)	827
O=C(C1CC1)N1CCc2sc(S(=O)(=O)Nc3ccc(Cl)cc3F)cc2C1	887
CC(C)n1cnc(S(=O)(=O)N2CCC(C(=O)NCc3ccc(Br)cc3)CC2)c1	782
CN(C(=O)Cn1ccc2c(=O)n(C)c(=O)n(C)c21)c1cccc(Cl)c1	709
CCn1ccc2sc(C)c(C(=O)NCc3cc(F)ccc3F)c2c1=O	835
Cc1ccc(NC(=O)N2CCN(Cc3nc4ccccc4o3)CC2)cc1	689
COc1ccc(CC(=O)N2CCC(c3cc(N)on3)CC2)cc1	662
